Results published in PubChem BioAssay AID248 (DTP/NCI, 2004).
Where “and” joins values, the source holds several entries; their conditions need not be identical. Identical values can stand only once. Toxic doses and inconclusive results are not listed. Cut-off read from the data, not from the text of the source: active = T/C of 150% or more; inactive = T/C below 125%.

System: L1210 leukemia ip in BDF1 mice, survival T/C
Experiment: NCI In Vivo Anticancer Drug Screen. Data for tumor model L1210 Leukemia (intraperitoneal) in B6D2F1 (BDF1) mice
Conditions: endpoint: mean survival time, higher = longer survival
Procedure, shortened: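 Tumor cells were implanted, animals were treated, and survival was followed. The result divides the treated measurement by the vehicle-control measurement.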

[1] = dose: 50.0 mg/kg/injection, schedule: Q01DX009 (ip), vehicle: saline with Tween-80
[2] = dose: 100.0 mg/kg/injection, schedule: Q01DX009 (ip), vehicle: saline with Tween-80
[3] = dose: 200.0 mg/kg/injection, schedule: Q01DX009 (ip), vehicle: saline with Tween-80
[4] = dose: 100.0 mg/kg/injection, schedule: Q01DX001 (ip), vehicle: saline
[5] = dose: 100.0 mg/kg/injection, schedule: Q04DX003 (ip), vehicle: saline with Tween-80
[6] = dose: 200.0 mg/kg/injection, schedule: Q04DX003 (ip), vehicle: saline with Tween-80
[7] = dose: 400.0 mg/kg/injection, schedule: Q04DX003 (ip), vehicle: saline with Tween-80
[8] = dose: 200.0 mg/kg/injection, schedule: Q01DX001 (ip), vehicle: saline
[9] = dose: 400.0 mg/kg/injection, schedule: Q01DX001 (ip), vehicle: saline
[10] = dose: 100.0 mg/kg/injection, schedule: Q04DX003 (ip), vehicle: Klucel (hydroxypropylcellulose) (HPC)
[11] = dose: 200.0 mg/kg/injection, schedule: Q04DX003 (ip), vehicle: Klucel (hydroxypropylcellulose) (HPC)

Measured: T/C

CCOC(=O)c1cc(Br)cc(Br)c1N/N=[N+](\C)[O-]
inactive: [1] 105 % of control | [2] 98 % of control | [3] 110 % of control

[NH-]S(=O)(=O)O.[NH-]S(=O)(=O)O.[NH2-].[NH2-].[Pt+4]
inactive: dose: 10.0 mg/kg/injection, schedule: Q01DX009 (ip), vehicle: saline with Tween-80 100 % of control | dose: 20.0 mg/kg/injection, schedule: Q01DX009 (ip), vehicle: saline with Tween-80 90 % of control | dose: 40.0 mg/kg/injection, schedule: Q01DX009 (ip), vehicle: saline with Tween-80 100 % of control

C=C[CH2][Sn]([CH2]C=C)([c]1ccccc1)[c]1ccccc1
inactive: dose: 1.56 mg/kg/injection, schedule: Q01DX009 (ip), vehicle: saline with Tween-80 97 % of control | dose: 3.13 mg/kg/injection, schedule: Q01DX009 (ip), vehicle: saline with Tween-80 92 % of control | dose: 6.25 mg/kg/injection, schedule: Q01DX009 (ip), vehicle: saline with Tween-80 86 % of control

CCOC(=O)C(O)(CC)c1cc[n+](Cc2cc3ccccc3nc2Cl)cc1C (stereo unspecified)
inactive: dose: 50.0 mg/kg/injection, schedule: Q01DX001 (ip), vehicle: saline 115 % of control | [4] 94 % of control

CC(=O)Nc1ccc(NC(C)=O)c2c1C(=O)c1ccccc1C2=O
inactive: [2] 94 % of control | [5] 119 % of control | [3] 96 % of control | [6] 112 % of control | dose: 400.0 mg/kg/injection, schedule: Q01DX009 (ip), vehicle: saline with Tween-80 91 % of control | [7] 93 % of control

Nc1cn(C2OC(CO)C(O)C2O)c(=O)[nH]c1=O (stereo unspecified)
inactive: [4] 97 % of control | [8] 124 % of control | [9] 100 % of control

CCOC(=O)c1occ(Cl)c1Cl
inactive: [4] 107 % of control | [8] 113 % of control

CC(C)CCCC(C)C1CCC2C3CC=C4CC(OC(=O)Nc5ccc(S(=O)(=O)NC6CCCCC6)cc5)CCC4(C)C3CCC12C (stereo unspecified)
inactive: dose: 100.0 mg/kg/injection, schedule: Q01DX001 (sc), vehicle: steriod suspending solution 110 % of control | dose: 200.0 mg/kg/injection, schedule: Q01DX001 (sc), vehicle: steriod suspending solution 108 % of control | dose: 400.0 mg/kg/injection, schedule: Q01DX001 (sc), vehicle: steriod suspending solution 105 % of control

O=S(=O)(F)c1ccc(-c2cc(Cl)c3c(Br)cc(Br)cc3n2)cc1
inactive: [10] 100 % of control | [11] 94 % of control | dose: 400.0 mg/kg/injection, schedule: Q04DX003 (ip), vehicle: Klucel (hydroxypropylcellulose) (HPC) 102 % of control

CCCCCCC1(C)NC(=O)NC1=O (stereo unspecified)
inactive: [4] 102 % of control | [8] 100 % of control | [9] 96 % of control

CCN=C(N)CSS(=O)(=O)O
inactive: dose: 25.0 mg/kg/injection, schedule: Q04DX002 (ip), vehicle: Klucel (hydroxypropylcellulose) (HPC) 100 % of control | dose: 50.0 mg/kg/injection, schedule: Q04DX002 (ip), vehicle: Klucel (hydroxypropylcellulose) (HPC) 97 % of control | dose: 100.0 mg/kg/injection, schedule: Q04DX002 (ip), vehicle: Klucel (hydroxypropylcellulose) (HPC) 95 % of control and 110 % of control

O=C(/C=C/c1ccc2c(c1)OCO2)/C=C/c1ccc2c(c1)OCO2
inactive: dose: 25.0 mg/kg/injection, schedule: Q01DX009 (ip), vehicle: saline 89 % of control | dose: 50.0 mg/kg/injection, schedule: Q01DX009 (ip), vehicle: saline 88 % of control | dose: 100.0 mg/kg/injection, schedule: Q01DX009 (ip), vehicle: saline 91 % of control | dose: 200.0 mg/kg/injection, schedule: Q01DX009 (ip), vehicle: saline 88 % of control

c1ccc(C(c2ccccc2)c2ccc3ccccc3n2)cc1
inactive: dose: 100.0 mg/kg/injection, schedule: Q04DX003 (ip), vehicle: acetone 90 % of control | dose: 200.0 mg/kg/injection, schedule: Q04DX003 (ip), vehicle: acetone 99 % of control | dose: 400.0 mg/kg/injection, schedule: Q04DX003 (ip), vehicle: acetone 94 % of control

O=C(c1ccccc1)C1CCCCC1
inactive: dose: 100.0 mg/kg/injection, schedule: Q01DX001 (ip), vehicle: other 111 % of control | dose: 100.0 mg/kg/injection, schedule: Q04DX003 (ip), vehicle: saline 104 % of control | dose: 200.0 mg/kg/injection, schedule: Q01DX001 (ip), vehicle: other 100 % of control | dose: 200.0 mg/kg/injection, schedule: Q04DX003 (ip), vehicle: saline 96 % of control | dose: 400.0 mg/kg/injection, schedule: Q01DX001 (ip), vehicle: other 105 % of control | dose: 400.0 mg/kg/injection, schedule: Q04DX003 (ip), vehicle: saline 96 % of control

Cc1c2c(cc3c1OCN(C1CCCCC1)C3)CN(C1CCCCC1)CO2
inactive: [4] 98 % of control | [8] 90 % of control

ClCCCC#Cc1ccccc1
inactive: dose: 50.0 mg/kg/injection, schedule: Q01DX009 (ip), vehicle: Klucel (hydroxypropylcellulose) (HPC) 101 % of control | dose: 100.0 mg/kg/injection, schedule: Q01DX001 (ip), vehicle: Klucel (hydroxypropylcellulose) (HPC) 90 % of control | dose: 100.0 mg/kg/injection, schedule: Q01DX009 (ip), vehicle: Klucel (hydroxypropylcellulose) (HPC) 101 % of control | dose: 200.0 mg/kg/injection, schedule: Q01DX001 (ip), vehicle: Klucel (hydroxypropylcellulose) (HPC) 98 % of control | dose: 200.0 mg/kg/injection, schedule: Q01DX009 (ip), vehicle: Klucel (hydroxypropylcellulose) (HPC) 110 % of control

O=S(=O)(CCCc1ccccc1)CCS(=O)(=O)CCCc1ccccc1
inactive: dose: 50.0 mg/kg/injection, schedule: Q01DX009 (ip), vehicle: acetone 98 % of control | dose: 100.0 mg/kg/injection, schedule: Q01DX009 (ip), vehicle: acetone 98 % of control | dose: 200.0 mg/kg/injection, schedule: Q01DX009 (ip), vehicle: acetone 98 % of control

CC(=O)NC1CCCC(C)C1 (stereo unspecified)
inactive: [2] 101 % of control | [3] 106 % of control

S=C(Nc1ccccc1)NC1CCC(CC2CCCCC2)CC1 (stereo unspecified)
inactive: dose: 75.0 mg/kg/injection, schedule: Q01DX009 (ip), vehicle: Klucel (hydroxypropylcellulose) (HPC) 105 % of control | [10] 108 % of control | dose: 150.0 mg/kg/injection, schedule: Q01DX009 (ip), vehicle: Klucel (hydroxypropylcellulose) (HPC) 107 % of control | [11] 108 % of control

COc1ccc(/C=N/NC(=O)CNC(=O)Nc2cccc(Cl)c2Cl)cc1
inactive: [1] 93 % of control | [2] 96 % of control

COC(=O)Cc1ccccc1C(=O)OC
inactive: [5] 107 % of control | [6] 96 % of control | [7] 100 % of control

N#CC1(c2ccccc2)CCCC1(C#N)c1ccccc1 (stereo unspecified)
inactive: dose: 75.0 mg/kg/injection, schedule: Q01DX001 (ip), vehicle: carboxymethylcellulose (CMC) 86 % of control | dose: 150.0 mg/kg/injection, schedule: Q01DX001 (ip), vehicle: carboxymethylcellulose (CMC) 88 % of control | dose: 300.0 mg/kg/injection, schedule: Q01DX001 (ip), vehicle: carboxymethylcellulose (CMC) 86 % of control
